Measured values reported in patent US5336783A, “Calpain inhibitor cystamidin A and its production” (The Kitasato Institute, priority 1992, dated 1994).
In brackets after ≈: the same amount, converted by molar mass.

What was measured:
calpain = calpain inhibition using casein as substrate (method by Saito et al.); assay type: biochemical
[1] = test system: various kinds of bacteria, yeast and fungi; experiment: antimicrobial activity (paper disk method); assay type: cell-based; conditions: 100 μg/disk
B-16 melanoma cells = experiment: activity against B-16 melanoma cells in vitro; assay type: cell-based; conditions: Mus musculus, B16
[2] = acute toxicity LD50 (ip) in mice; conditions: mouse, in vivo
solubility in solvent = assay type: physicochemical; conditions: water, methanol, acetone, chloroform and benzene

**Q.** For `NC(=O)CCc1cc[nH]c1` [cystamidin A], which “IC50 (50% inhibition) against calpain” value (calpain) is on record?
**A.** 0.20 µg/mL (≈ 1.45 µM)

**Q.** What about the antimicrobial activity [1] of the same compound?
**A.** no antimicrobial activity

**Q.** And the IC50 (B-16 melanoma cells)?
**A.** > 25 µg/mL

**Q.** And the LD50 [2]?
**A.** > 200 mg/kg

**Q.** What about the Solubility in solvent (solubility in solvent) of the same compound?
**A.** soluble in water, methanol, acetone, chloroform and benzene
